Reference: patent US7183267B2, “β-lactamase inhibitors and methods of use thereof” (priority 2003, dated 2007)
≈ marks a conversion by molar mass, not a printed value.

What was measured:
Assay type in all cases: cell-based
[1] = tested on: methicillin resistant S. aureus from Stanford University Hospital (MRSA-SU); assay: MIC assay, broth microdilution, MRSA-SU; details: Staphylococcus aureus, MRSA, 24 h
Excerpt: (2) methicillin resistant S. aureus from Stanford University Hospital Clinical Microbiology/Virology Laboratory (MRSA-SU). […] Such Staphylococci are also resistant to all penicillins, and all cephalosporins, in addition to all β-lactamase inhibitor combinations (including ampicillin/sulbactarn, amoxicillin/clavulanic acid, piperacillin/tazobactam), imipenem, and meropenem; and
(§1) The strains were processed according to procedures recommended by ATCC, or procedures that are routinely used. Single colonies of each organism were picked for purification to generate pure working cultures. Prior to each experiment each strain was subcultured on a fresh Mueller-Hinton agar plate (MHA).
(§2) Inocula for the MIC assays were prepared by transferring a tiny portion of one colony from a MHA plate to 2 ml of Mueller-Hinton broth (MHB) such that the estimated cell density was about 10^7 colony forming unit (CFU)/ml. This cell suspension was then further diluted 10-fold (to 10^6 CFU/ml) by transferring the 2 ml cell suspension to 18 ml of MHB. Addition of 50 μl of this dilute cell suspension to 50 μl of growth medium yielded the desired cell density, namely about 5×10^4 CFU/well, or 5×10^5 CFU/ml.
(§3) The MIC value of oxacillin was determined using the broth microdilution procedure recommended by the National Committee of Clinical Laboratory Standards (NCCLS, 2000).
(§4) The MIC experiments were performed in duplicate in 96-well microtiter plates using MHB. A stock solution of 2.6 mg/0.5 ml was prepared in dimethylsulfoxide (DMSO). A total of 8 two-fold serial dilutions were made with DMSO. Initial oxacillin doses used were (μg/ml): 64, 32, 16, 8, 4, 2, 1, and 0.5. Doses were adjusted in the confirmatory experiment, if needed, in order to establish an actual MIC value.
(§5) To each well of a 96 well microtiter plate was added 47.5 μl of MHB. A volume of 2.5 μl of each dilution of oxacillin was then transferred to appropriate wells containing the medium. All wells, except the sterility control wells, were then inoculated with 50 μl of a diluted cell suspension to give a final volume of 100 μl and a final cell density of 5×10^4 CFU/well. The volume in the sterility control wells was adjusted to 100 μl with MHB. A sterile pipette tip was used to mix the contents of each well (one tip was used going from the low to the high concentration in the same column). The microtiter plates were covered with the lids and were placed in large Stratagene Big Blue plates (Cat. # 400041). Four large kimwipes moistened with tap water were placed near the edges of the Stratagene plates to prevent evaporation of the medium. The microtiter plates were incubated for at least 24 hours at 35° C. The plates were then evaluated for growth in each well. Controls included: medium sterility and negative control (medium and bacteria only).
(§6) The procedure used to determine the antimicrobial activity of the compounds of the present invention was identical to the broth microdilution procedure described above with the exception of the preparation of the stock solutions. Stock solution at concentration of 40.96 mg/0.5 ml was prepared in DMSO for each of the compounds. A total of 8 two-fold dilutions were then made in DMSO. A volume of 2.5 μl of each dilution was delivered to appropriate wells. The initial doses used were (μg/ml): 512, 256, 128, 64, 32, 16, 8, and 4.
(§7) A numerical code was used to evaluate the extent of growth as indicated below. • 0: absence of growth • 1: barely visible (faint) growth • 2: fair growth but less than the negative solvent control • 3: growth is equivalent to the negative solvent control.
(§8) The lowest dose at which no visible growth is observed was determined to be the MIC value.
(§9) MIC assays were performed with oxacillin and the four compounds. Each of the compounds was tested at the following 8 doses (μg/ml): 512, 256, 128, 64, 32, 16, 8, and 4. Oxacillin was tested at the following 8 doses (μg/ml): 64, 32, 16, 8, 4, 2, 1, and 0.5.

[2] = tested on: methicillin resistant S. aureus from Stanford University Hospital (MRSA-SU); assay: Matrix system: oxacillin plus β-lactamase inhibitor, MRSA-SU
Procedure: as §5, §7, §8
The effect of the four compounds of the present invention on oxacillin resistance of the MRSA strains was determined using a matrix system. The β-lactamase inhibitors were tested at 5 doses against up to eleven concentrations of oxacillin. […] A 96-well microtiter plate was used for the matrix system. The procedure was identical to that described above for the MIC determination, with the exception that both oxacillin and one each of the β-lactamase inhibitors was added, 2.5 μl each, to the wells prior to addition of the test organisms.
Matrix Study:Oxacillin and Compound FL201 with MRSA-SU
Matrix Study: Oxacillin and Compound FL202 with MRSA-SU

[3] = tested on: methicillin resistant S. aureus ATCC 33591 (MRSA-ATCC); assay: MIC assay, broth microdilution, MRSA-ATCC; details: Staphylococcus aureus, 24 h
Procedure: (1) methicillin resistant S. aureus ATCC 33591 (MRSA-ATCC). This strain was obtained from American Type Culture Collection (ATCC), Manassas, Md.;
as §1, §2, §3, §4, §5, §6, §7, §8, §9

[4] = tested on: methicillin sensitive S. aureus ATCC 25923 (MSSA); assay: MIC assay, broth microdilution, MSSA; details: Staphylococcus aureus, 24 h
Procedure: (3) methicillin sensitive S. aureus ATCC 25923 (MSSA). This strain was obtained from ATCC and was used as a control.
as §1, §2, §3, §4, §5, §6, §7, §8, §9

COC(=O)c1cc(B(O)O)cc([N+](=O)[O-])c1 [Compound F1202]
MIC [1]: 256 µg/mL | MIC (oxacillin) ([2]; Table 18, in presence of F1202 16 μg/ml): 64 µg/mL | MIC (oxacillin) ([2]; Table 18, in presence of F1202 32 μg/ml): 4 µg/mL | MIC (oxacillin) ([2]; Table 18, in presence of F1202 64 μg/ml): 1 µg/mL | MIC (oxacillin) ([2]; Table 18, in presence of F1202 128 μg/ml): 0.25 µg/mL | growth score ([2]; Table 18, oxacillin 0, F1202 16 μg/ml): 3 | growth score ([2]; Table 18, oxacillin 0, F1202 32 μg/ml): 3 | growth score ([2]; Table 18, oxacillin 0, F1202 64 μg/ml): 3 | growth score ([2]; Table 18, oxacillin 0, F1202 128 μg/ml): 1 | growth score ([2]; Table 18, oxacillin 0, F1202 256 μg/ml): 0 | growth score ([2]; Table 18, oxacillin 0.064 μg/ml + F1202 16 μg/ml): 1 | growth score ([2]; Table 18, oxacillin 0.064 μg/ml + F1202 32 μg/ml): 1 | growth score ([2]; Table 18, oxacillin 0.064 μg/ml + F1202 64 μg/ml): 1 | growth score ([2]; Table 18, oxacillin 0.064 μg/ml + F1202 128 μg/ml): 1 | growth score ([2]; Table 18, oxacillin 0.064 μg/ml + F1202 256 μg/ml): 0 | growth score ([2]; Table 18, oxacillin 0.125 μg/ml + F1202 16 μg/ml): 1 | growth score ([2]; Table 18, oxacillin 0.125 μg/ml + F1202 32 μg/ml): 1 | growth score ([2]; Table 18, oxacillin 0.125 μg/ml + F1202 64 μg/ml): 1 | growth score ([2]; Table 18, oxacillin 0.125 μg/ml + F1202 128 μg/ml): 1 | growth score ([2]; Table 18, oxacillin 0.125 μg/ml + F1202 256 μg/ml): 0 | growth score ([2]; Table 18, oxacillin 0.25 μg/ml + F1202 16 μg/ml): 1 | growth score ([2]; Table 18, oxacillin 0.25 μg/ml + F1202 32 μg/ml): 1 | growth score ([2]; Table 18, oxacillin 0.25 μg/ml + F1202 64 μg/ml): 1 | growth score ([2]; Table 18, oxacillin 0.25 μg/ml + F1202 128 μg/ml): 0 | growth score ([2]; Table 18, oxacillin 0.25 μg/ml + F1202 256 μg/ml): 0 | growth score ([2]; Table 18, oxacillin 0.5 μg/ml + F1202 16 μg/ml): 1 | growth score ([2]; Table 18, oxacillin 0.5 μg/ml + F1202 32 μg/ml): 1 | growth score ([2]; Table 18, oxacillin 0.5 μg/ml + F1202 64 μg/ml): 1 | growth score ([2]; Table 18, oxacillin 0.5 μg/ml + F1202 128 μg/ml): 0 | growth score ([2]; Table 18, oxacillin 0.5 μg/ml + F1202 256 μg/ml): 0 | growth score ([2]; Table 18, oxacillin 1 μg/ml + F1202 16 μg/ml): 1 | growth score ([2]; Table 18, oxacillin 1 μg/ml + F1202 32 μg/ml): 1 | growth score ([2]; Table 18, oxacillin 1 μg/ml + F1202 64 μg/ml): 0 | growth score ([2]; Table 18, oxacillin 1 μg/ml + F1202 128 μg/ml): 0 | growth score ([2]; Table 18, oxacillin 1 μg/ml + F1202 256 μg/ml): 0 | growth score ([2]; Table 18, oxacillin 2 μg/ml + F1202 16 μg/ml): 1 | growth score ([2]; Table 18, oxacillin 2 μg/ml + F1202 32 μg/ml): 1 | growth score ([2]; Table 18, oxacillin 2 μg/ml + F1202 64 μg/ml): 0 | growth score ([2]; Table 18, oxacillin 2 μg/ml + F1202 128 μg/ml): 0 | growth score ([2]; Table 18, oxacillin 2 μg/ml + F1202 256 μg/ml): 0 | growth score ([2]; Table 18, oxacillin 4 μg/ml + F1202 16 μg/ml): 1 | growth score ([2]; Table 18, oxacillin 4 μg/ml + F1202 32 μg/ml): 0 | growth score ([2]; Table 18, oxacillin 4 μg/ml + F1202 64 μg/ml): 0 | growth score ([2]; Table 18, oxacillin 4 μg/ml + F1202 128 μg/ml): 0 | growth score ([2]; Table 18, oxacillin 4 μg/ml + F1202 256 μg/ml): 0 | growth score ([2]; Table 18, oxacillin 16 μg/ml + F1202 16 μg/ml): 1 | growth score ([2]; Table 18, oxacillin 16 μg/ml + F1202 32 μg/ml): 0 | growth score ([2]; Table 18, oxacillin 16 μg/ml + F1202 64 μg/ml): 0 | growth score ([2]; Table 18, oxacillin 16 μg/ml + F1202 128 μg/ml): 0 | growth score ([2]; Table 18, oxacillin 16 μg/ml + F1202 256 μg/ml): 0 | growth score ([2]; Table 18, oxacillin 64 μg/ml + F1202 16 μg/ml): 0 | growth score ([2]; Table 18, oxacillin 64 μg/ml + F1202 32 μg/ml): 0 | growth score ([2]; Table 18, oxacillin 64 μg/ml + F1202 64 μg/ml): 0 | growth score ([2]; Table 18, oxacillin 64 μg/ml + F1202 128 μg/ml): 0 | growth score ([2]; Table 18, oxacillin 64 μg/ml + F1202 256 μg/ml): 0 | growth score ([2]; Table 18, oxacillin 128 μg/ml + F1202 16 μg/ml): 0 | growth score ([2]; Table 18, oxacillin 128 μg/ml + F1202 32 μg/ml): 0 | growth score ([2]; Table 18, oxacillin 128 μg/ml + F1202 64 μg/ml): 0 | growth score ([2]; Table 18, oxacillin 128 μg/ml + F1202 128 μg/ml): 0 | growth score ([2]; Table 18, oxacillin 128 μg/ml + F1202 256 μg/ml): 0 | growth score ([2]; Table 18, oxacillin 256 μg/ml + F1202 16 μg/ml): 0 | growth score ([2]; Table 18, oxacillin 256 μg/ml + F1202 32 μg/ml): 0 | growth score ([2]; Table 18, oxacillin 256 μg/ml + F1202 64 μg/ml): 0 | growth score ([2]; Table 18, oxacillin 256 μg/ml + F1202 128 μg/ml): 0 | growth score ([2]; Table 18, oxacillin 256 μg/ml + F1202 256 μg/ml): 0 | MIC [3]: 16 µg/mL (≈ 71.1 µM) | MIC [4]: 128 µg/mL (≈ 569 µM)
